Test system: 695427-040-R-J1-PDC complex spheroids, viability percent T/C
Experiment: Anticancer human tumor 695427-040-R-J1-PDC patient-derived colon adenocarcinoma cell line growth inhibition [GQUAD]
Conditions: for IC50: curve of first compound; for viability, T/C: stronger effect = lower value
In short: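 Tumor cells were grown as complex spheroids with HUVEC endothelial cells and mesenchymal stem cells as stroma. G-quadruplex stabilizers were combined with targeted agents over half-log dilutions from near the clinical Cmax, or from 10 microM.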

[1] = second compound 0.0316 µM, first compound 0.0316 µM
[2] = second compound 0.0316 µM, first compound 0.1 µM
[3] = second compound 0.0316 µM, first compound 0.316 µM
[4] = second compound 0.0316 µM, first compound 1 µM
[5] = second compound 0.0316 µM, first compound 3.16 µM
[6] = second compound 0.0316 µM, first compound 10 µM
[7] = second compound 0.1 µM, first compound 0.0316 µM
[8] = second compound 0.1 µM, first compound 0.1 µM
[9] = second compound 0.1 µM, first compound 0.316 µM
[10] = second compound 0.1 µM, first compound 1 µM
[11] = second compound 0.1 µM, first compound 3.16 µM
[12] = second compound 0.1 µM, first compound 10 µM
[13] = second compound 0.316 µM, first compound 0.0316 µM
[14] = second compound 0.316 µM, first compound 0.1 µM
[15] = second compound 0.316 µM, first compound 0.316 µM
[16] = second compound 0.316 µM, first compound 1 µM
[17] = second compound 0.316 µM, first compound 3.16 µM
[18] = second compound 0.316 µM, first compound 10 µM
[19] = second compound 1 µM, first compound 0.0316 µM
[20] = second compound 1 µM, first compound 0.1 µM
[21] = second compound 1 µM, first compound 0.316 µM
[22] = second compound 1 µM, first compound 1 µM
[23] = second compound 1 µM, first compound 3.16 µM
[24] = second compound 1 µM, first compound 10 µM
[25] = second compound 3.16 µM, first compound 0.0316 µM
[26] = second compound 3.16 µM, first compound 0.1 µM
[27] = second compound 3.16 µM, first compound 0.316 µM
[28] = second compound 3.16 µM, first compound 1 µM
[29] = second compound 3.16 µM, first compound 3.16 µM
[30] = second compound 3.16 µM, first compound 10 µM
[31] = second compound 10 µM, first compound 0.0316 µM
[32] = second compound 10 µM, first compound 0.1 µM
[33] = second compound 10 µM, first compound 0.316 µM
[34] = second compound 10 µM, first compound 1 µM
[35] = second compound 10 µM, first compound 3.16 µM
[36] = second compound 10 µM, first compound 10 µM
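Also: spheroids exposed to compounds for seven days before readout.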

CC1COCCN1c1cc(-c2ccnn2C)c2ccnc(-c3ccn[nH]3)c2n1 (centres undefined) + Cc1cnc(CNC(=O)c2c(=O)c3ccc(N4CCCN(C)CC4)nc3n3c2sc2ccccc23)cn1
IC50 (second compound 0.0316 µM): 120 nM
IC50 (second compound 0.1 µM): 68.4 nM
IC50 (second compound 0.316 µM): 79.2 nM
IC50 (second compound 1 µM): 51.9 nM
IC50 (second compound 3.16 µM): < 31.6 nM
IC50 (second compound 10 µM): < 31.6 nM
viability, T/C [1]: 62.7%
viability, T/C [2]: 52%
viability, T/C [3]: 38.8%
viability, T/C [4]: 29.9%
viability, T/C [5]: 28.1%
viability, T/C [6]: 26.6%
viability, T/C [7]: 59.9%
viability, T/C [8]: 44.5%
viability, T/C [9]: 36.2%
viability, T/C [10]: 25.6%
viability, T/C [11]: 29.4%
viability, T/C [12]: 29.2%
viability, T/C [13]: 69.3%
viability, T/C [14]: 43.2%
viability, T/C [15]: 37.3%
viability, T/C [16]: 28%
viability, T/C [17]: 30%
viability, T/C [18]: 24.9%
viability, T/C [19]: 58.8%
viability, T/C [20]: 35.6%
viability, T/C [21]: 34.1%
viability, T/C [22]: 22.7%
viability, T/C [23]: 27.7%
viability, T/C [24]: 14.8%
viability, T/C [25]: 21.8%
viability, T/C [26]: 31.4%
viability, T/C [27]: 28.9%
viability, T/C [28]: 20.6%
viability, T/C [29]: 20.5%
viability, T/C [30]: 11.5%
viability, T/C [31]: 24.9%
viability, T/C [32]: 19.6%
viability, T/C [33]: 24.8%
viability, T/C [34]: 16.6%
viability, T/C [35]: 13.6%
viability, T/C [36]: 1.36%

CC1COCCN1c1cc(C2(O)CC3CCC(C2)O3)c2cnn(-c3ccn[nH]3)c2n1 (centres undefined) + Cc1cnc(CNC(=O)c2c(=O)c3ccc(N4CCCN(C)CC4)nc3n3c2sc2ccccc23)cn1
IC50 (second compound 0.0316 µM): 277 nM
IC50 (second compound 0.1 µM): 220 nM
IC50 (second compound 0.316 µM): 91.1 nM
IC50 (second compound 1 µM): < 31.6 nM
IC50 (second compound 3.16 µM): < 31.6 nM
IC50 (second compound 10 µM): < 31.6 nM
viability, T/C [1]: 75.1%
viability, T/C [2]: 63%
viability, T/C [3]: 49.8%
viability, T/C [4]: 31.1%
viability, T/C [5]: 26%
viability, T/C [6]: 18.1%
viability, T/C [7]: 79%
viability, T/C [8]: 57%
viability, T/C [9]: 47%
viability, T/C [10]: 34.1%
viability, T/C [11]: 30.3%
viability, T/C [12]: 20.9%
viability, T/C [13]: 81.7%
viability, T/C [14]: 41.3%
viability, T/C [15]: 40.2%
viability, T/C [16]: 26.8%
viability, T/C [17]: 26.4%
viability, T/C [18]: 18.4%
viability, T/C [19]: 38.5%
viability, T/C [20]: 41.1%
viability, T/C [21]: 31.5%
viability, T/C [22]: 29.7%
viability, T/C [23]: 28.2%
viability, T/C [24]: 14.3%
viability, T/C [25]: 30.2%
viability, T/C [26]: 35%
viability, T/C [27]: 28.5%
viability, T/C [28]: 16.9%
viability, T/C [29]: 19.5%
viability, T/C [30]: 4.04%
viability, T/C [31]: 22.1%
viability, T/C [32]: 22.2%
viability, T/C [33]: 19.3%
viability, T/C [34]: 15.2%
viability, T/C [35]: 8.74%
viability, T/C [36]: 0.42%
